Key:
Assay type in all cases: cell-based
A-549 = assay: Cell proliferation by MTT method, A-549; details: Homo sapiens
Experimental: (§1) The objective of this study was to determine the influence of the compounds on cell proliferation of K-562, A-549, MCF-7, HeLa, WI-38 by MTT method. The compounds were tested over a three-fold dilution series in triplicate for the determination of EC50 of their influence on cell proliferation.
(§2) The assay is based on the cleavage of the yellow tetrazolium salt MTT into purple formazan by metabolically active cells. The MTT formazan crystals are insoluble in aqueous solution, but may be solubilized by adding the 10% SDS, then incubating the plates overnight in a humidified atmosphere (e.g., 37° C., 5% CO2). The solubilized formazan product can be photometrically quantitated using Tecan reader. An increase in the number of living cells results in an increase of total metabolic activity, which leads to a stronger color formation.
(§3) EC50 values are defined as the compound concentration at which 50% of reaction product is formed.
(§4) Test compounds were dissolved to 10 mM in 100% DMSO.
(§5) In the day of the experiment cells were seeded into all wells of 96-well plates. Serial dilution of compounds was performed in a separate 96-well plate at 20 times final assay concentration in cell culture medium (DMEM with 10% Fetal Bovine Serum). 5 μl of compound was transferred to 96-well plate containing seeded cells in cell culture medium (final total volume=100 μl). Cells were cultured in the presence of the respective test substances in the 96-well plate at 37° C. in a humidified 5% CO2 incubator for a certain period of time (24, 72 or 120 hours). Then 5 μL of thiazolyl blue tetrazolium bromide (MTT) 5 mg/mL was added to the cells and the cells were reincubated 4 hours in a humidified 5% CO2 incubator. Then 10% SDS was added into the each well. The reaction product was quantified by measuring the absorbance at 568 nm using a scanning multiwell spectrophotometer Tecan. The developed color and thereby the absorbance values directly correlate to the number of the living cells.
(§6) The data were analyzed using Microsoft Excel 2000, GraphPad Prism 3.03.
(§7) K 562 (human, chronic myelongenous leukemia), A 549 (human, lung carcinoma), MCF-7 (human, breast adenocarcinoma), Hela (human, cervix, carcinoma, epitheloid), WI-38 (human, embryonic lung)

MCF-7 = assay: Cell proliferation by MTT method, MCF-7; details: Homo sapiens
Experimental: as §1, §2, §3, §4, §5, §6, §7

HCT-116 = assay: Cell growth inhibition by AlamarBlue method, HCT-116; details: Homo sapiens; HCT-116, 72 hours; read-out: Cell growth inhibition values (EC50) obtained with AlamarBlue method
Experimental: The human colon cancer cell line HCT-116 and the human breast cell lines MCF-7 and SKBr3 were from the American Type Culture Collection (ATCC; CCL-247, HTB-22 and HTB-30, respectively).
The HCT-116 and SKBr3 cell lines were maintained in DMEM GlutaMAX (Invitrogen) supplemented with 10% fetal calf serum and the MCF-7 cell line was maintained in RPMI1640 GlutaMAX (Invitrogen) containing 1 mM sodium pyruvate and 10% fetal calf serum. Cells were grown in a humidified incubator at 37° C. in 5% CO2
Cells were plated in 96-well plates (Costar, 3596) at a density of 6000 cells/well in 50 μL medium 24 h before addition of the compounds. Compounds were then added in 8 concentrations, each in triplicate (dilution series of 1 to 3). To do so, a compound-dilution plate at 200× the screening concentrations was prepared in DMSO 100% (Sigma, 154938). Then, 1.7 μL of the 200× diluted compounds were transferred to a new plate and 170 μL of media were added and mixed with the pipette (plate at 2×). Columns 11 and 12 of this plate (controls) were filled with 1% DMSO in cell media (i.e. 1.7 μL DMSO and 170 μL cell media). Finally, 50 μL of this intermediate plate at 2× were transferred to the plate containing the seeded cells and slowly shaken manually. Cells were grown as described above. AlamarBlue viability assay (Biosource, Invitrogen, DAL1100) was performed 72 hours later following manufacturer's protocol. In brief, AlamarBlue diluted in media was added to cells to have a 5% solution (a 2× solution was prepared in media and 100 μL of this solution were transferred to each well, i.e. final volume of 200 μL). Cells were incubated at 37° C., 3 hours and at room temperature for an additional 30 min. Cells with no compound and, cells with no compound and lysed with triton X-100 (30 μL/well added 10 min before treatment with AlamarBlue) were used as controls (6 replicates of each). Fluorescence was monitored at 530 nm excitation and 590 nm emission wavelengths. Results were quantified using ELx800 Universal Microplate Reader (Bio-Tek Instruments, Inc.). EC50 were calculated as the dose of compound required to inhibit cell growth by 50%.

[1] = A549, 24 h, A 549, incubation 1 day
[2] = A549, 72 h, A 549, incubation 3 days
[3] = A549, 120 h, A 549, incubation 5 days
[4] = MCF7, 24 h, MCF-7, incubation 1 day
[5] = MCF7, 72 h, MCF-7, incubation 3 days
[6] = MCF7, 120 h, MCF-7, incubation 5 days

| Structure (SMILES) | EC50 (A-549; [1]) [µM] | EC50 (A-549; [2]) [µM] | EC50 (A-549; [3]) [µM] | EC50 (MCF-7; [4]) [µM] | EC50 (MCF-7; [5]) [µM] | EC50 (MCF-7; [6]) [µM] | EC50 (HCT-116) [µM] |
| --- | --- | --- | --- | --- | --- | --- | --- |
| NCCCCCn1c(Sc2cc3c(cc2I)OCO3)nc(C(N)=O)c1N [Example 6, 5-amino-1-(5-amino-pentyl)-2-(6-iodo-benzo[1,3]dioxol-5-ylsulfanyl)-1H-imidazole-4-carboxamide] | > 100 | 24.1 | 14.9 | > 100 | 17.3 | 16.7 | 23.7 |
| CCCCn1c(Sc2cc3c(cc2I)OCO3)nc(C(N)=O)c1N [Example 10, 5-amino-1-butyl-2-(6-iodo-benzo[1,3]dioxol-5-ylsulfanyl)-1H-imidazole-4-carboxamide] | > 100 | 13.3 | 16.2 | > 100 | 10.1 | 11.7 | 18 |
